These results are taken from patent publication US11319300B2, “Polyfluoro-substituted aromatic heterocyclic derivative, pharmaceutical composition containing same, and applications thereof” (ZHEJIANG UNIVERSITY, priority 2017, dated 2022).

pIC50: −log10 of the molar value. Marks after values point to notes of the source that are not given here.

The target of one data set is T1, hERG potassium channel (Homo sapiens, UniProt Q12809).
T1 construct: host or cells: CHO
The data set can be described thus: hERG potassium channel inhibition, manual whole-cell patch clamp in CHO hERG cells. The settings on record: 3 μM, CHO hERG cells, patch clamp. It counts as cell-based. How it is done:
A Sixty-Third Embodiment: hERG Potassium Channel Inhibition Activity Experiment
The cells used in this assay were CHO cell lines transfected with hERG cDNA and stably expressing the hERG channel (supplied by Sophion Bioscience, Denmark). The cells were cultured in medium containing the following components (all from Invitrogen): Ham's F12 medium, 10% (v/v) inactivated fetal bovine serum, 100 μg/ml hygromycin B, and 100 μg/ml Geneticin. 2.1.2CHO hERG cells were grown in a Petri dish containing the above culture solution, and cultured in an incubator containing 5% of CO2 at 37° C. 24 to 48 hours prior to electrophysiological experiments, CHO hERG cells were transferred to circular glass slides placed in petri dishes and grown under the same culture and culture conditions as above. The density of CHO hERG cells on each circular slide requires that most cells achieve independent, individual requirements.
2. Compound Treatment and Dilution
To obtain the IC50 of the compound, we selecte the following concentrations (30, 10, 3, 1, 0.3, and 0.1 μM) for testing. Prior to testing, the […] were first diluted to 10, 3, 1, 0.3, and 0.1 mM stock solution in gradual dilution with DMSO and then diluted to the final μM test concentration with extracellular fluid. The final concentration of DMSO in each of the other compound solutions was 0.1% except that the DMSO concentration in the 30 μM compound test solution was 0.3%. The positive control Cisapride (cishabili) was tested at a concentration of 0.1 μM. All compound solutions were sonicated and shaken for 5 to 10 minutes to ensure complete dissolution of the compound.
3. Electrophysiological Recording System and Data Analysis
This experiment uses a manual patch clamp system (HEKA EPC-10 signal amplifier and digital conversion system, purchased from HEKA Electronics, Germany) for the recording of whole cell currents. Round slide with CHO hERG cells on the surface was placed in an electrophysiology recording cell under an inverted microscope. The extracellular fluid was continuously perfused in the recording tank (about 1 ml per minute). The experimental procedure uses conventional whole-cell patch clamp current recording techniques. Unless otherwise stated, the experiments were carried out at regular room temperature (˜25° C.). The cells were clamped at a voltage of −80 mV. The cell clamp voltage was depolarized to +20 mV to activate the hERG potassium channel, and after 5 seconds it was clamped to −50 mV to eliminate inactivation and generate tail current. The tail current peak was used as the value of the hERG current magnitude. After the hERG potassium current recorded in the above step was stabilized under the continuous extracellular fluid perfusion in the recording tank, the drug to be tested can be superimposed and filled until the inhibitory effect of the drug on the hERG current reaches a steady state. Generally, the recent three consecutive current recording lines were recombined as a criterion for judging whether or not the state is stable. After reaching a steady state, extracellular fluid perfusion rinse until hERG current returns to the size before adding drug. One cell can test one or more drugs, or multiple concentrations of the same drug, but need to be flushed with extracellular fluid between different drugs. Cisapride (cisapride, purchased from Sigma) was used in the experiment as a positive control to ensure that the cells used were of normal quality. The test data was analysed by HEKA Patchmaster, Microsoft Excel and data analysis software provided by Graphpad Prism.
A general note: Block of hERG is tested as a sign of cardiac risk.

Data set [1] in a line: Oral pharmacokinetic experiment in SD rats. It counts as in vivo. The conditions noted are these: oral administration, 20 mg/kg, mean n = 3. How it is done: […] The blood sampling times of the tail vein administered by intragastric administration were 0.25, 0.5, 1, 2, 4, 6, 8, 10, 24 hours; the times of blood collection by intravenous administration were 0.05, 0.1, 0.17, 0.5, 1, 2, 4, 6, 8, 10, 24 hours. 0.3 ml of whole blood was taken, and after centrifugation, 0.1 ml of plasma was taken and analysed by LC-MS.

A further data set relates to HGC27. Put plainly: Tumour cell proliferation inhibition, MTT assay, HGC27. It counts as cell-based, human. For orientation: Formazan colour is commonly taken as a measure of viable cells.
The test system of data set [2] is human gastric cancer HGC27 nude mice xenografts. The data set can be described thus: In vivo antitumour activity, human gastric cancer HGC27 nude mice xenografts. The conditions noted are these: HGC27 xenograft, 50 mg/kg intragastric once a day. How it is done: A Sixty-Fifth Embodiment: In Vivo Antitumour Activity of Compounds
1) Establishment of a nude mouse xenograft model: 1×10^7 test tumour cells were injected into the armpit of nude mice, after three generations, HGC27 mouse tumour blocks were dissected and placed in a glass dish containing physiological saline, after the necrotic area was removed by incision, the tumour mass was cut into 1-2 mm^3 and inserted into the left axilla of the nude mouse with a trocar.
2) Animal grouping and drug delivery arrangements: after the tumour grows to an average volume of 100-300 mm^3, 20 mice were randomly grouped according to the tumour volume, and the above test animals were given the corresponding test substances by intragastric administration at a dose of 10 mL/kg with once a day.
3) Data measurement and statistics: The tumour volume was weighed and measured twice and dosing period was 21 days. On the 22nd day, after the body weight was weighed and the tumour volume was measured, the nude mice were sacrificed and the tumours were weighed to calculate the relative tumour volume (RTV), relative tumour growth rate (T/C) and tumour inhibition percentage (IR) for statistical testing. The calculation formula was as follows: (a) TV (tumour volume)=½×a×b^2, wherein a and b represent the length and width of the tumour respectively, (b) RTV (relative tumour volume)=Vt/V0, Where V0 is the tumour volume measured at the time of group administration (i.e. d0), Vt is the tumour volume at each measurement, (c) T/C (%)=TRTV/CRTV×100%, wherein TRTV is the RTV of treatment group, CRTV is the RTV of the solvent control group, (d) IR (%)=(1−TWt/TWc)×100%, wherein TWt is the tumour weight of the treatment group, and TWc is the tumour weight of the solvent control group.
Background: In xenograft studies the graft and the host belong to different species.

The next data set deals with CEM-C1. The data set can be described thus: Tumour cell proliferation inhibition, MTT assay, CEM-C1. It counts as cell-based, human.
Another data set has as its system 786-O. Put plainly: Tumour cell proliferation inhibition, MTT assay, 786-O. It counts as cell-based, human.
For the next data set, the system named is HCT-116. The data set can be described thus: Tumour cell proliferation inhibition, MTT assay, HCT-116. It counts as cell-based, human. How it is done:
(§1) Compound AZD5363 (NCT02208375, NCT02208375, NCT01625286), which have entered the clinical phase II study, was used as a positive control, and the compound was assayed against common tumour cell lines (human ovarian cancer cell line OVCAR-8 and human colon cancer cell line HCT-116) by MTT assay, at the same time, the akt1 enzyme inhibitory activity (IC50) was evaluated using a commercial Akt1 kit.
1) The pharmacological test method for the tumour cell proliferation inhibiting activity of the compound of the present invention was as follows:
The first was the determination of in vitro tumour growth inhibitory activity and the preliminary structure-activity relationship study, and different solid tumour cell lines were used to determine the in vitro antitumour activity of the synthesized compounds.
Experimental materials: cell lines: human ovarian cancer cells (OVCAR8), colon adenocarcinoma cells (HCT-116),
Medium: OVCAR8: RPMI 1640+fetal calf serum
Drug preparation method: dissolving the drug in DMSO to make a 50 mM of stock solution, and diluting it to a certain ratio to obtain 5 different concentrations.
Tumour Cells being Cultured In Vitro:
The selected tumour cells were incubated in a, 5% of CO2 cell incubator at 37° C., and passaged until the cell density was 70 to 90% (the adherent cells were passaged with Duck's EDTA) and used for subsequent experiments.
The compound was dissolved in dimethyl sulfoxide (DMSO), diluted, and tumour cells were seeded into 4000 cells/200 μL/well in 96-well plates, and 1 μL of compound was added to each well to a final concentration of 50 μM, 10 μM, 2 μM, and 0.4 μM. 0.08 μM were incubated in a, 5% of CO2 cell incubator at 37° C. for 72 hours with DMSO (1%) as a blank control.
The calculation formula of the cell inhibition rate is: cell inhibition rate %=(control group OD value−drug group OD value)/control cell OD value×100%, and the half inhibition concentration (IC50) was determined by the Bliss method.

For a further data set, the system named is MCF-7. The data set can be described thus: Tumour cell proliferation inhibition, MTT assay, MCF-7. It counts as cell-based, human.
Another data set addresses T2, AKT1/PKBα (Homo sapiens, UniProt P31749).
T2 construct: purchased
The data set can be described thus: Akt1 enzyme inhibitory activity, AKT1/PKBα KinEASE FP Fluorescein Green Assay. It counts as biochemical. The conditions noted are these: fluorescence polarization kit assay; read-out: Akt1 IC50 (grade). As for the experimental part: as §1
2) Test method for the inhibitory activity of the compound of the present invention against Akt1 enzyme:
The AKT1/PKBα KinEASE™ FP Fluorescein Green Assay (Kinase Green Fluorescence Detection System) was used to detect the inhibitory activity of the compound on AKT1/PKBα.
Fluorescence polarization detection protein kinase B employs the principle of a competitive reaction: a fluorescently labeled phosphorylated tracer and an unlabeled phosphorylated product produced by the reaction of protein kinase B will compete with the anti-serine antibody for binding. In a reaction mixture […], when a part of the fluorescent tracer binds to the antibody, it causes a higher polarization value. However, in the reaction solution mixture containing the phosphorylated product, less tracer binds to the antibody (the fluorescent tracer was replaced from the antibody) and the emitted signal was depolarized. Therefore, the change in polarization was directly related to the activity of protein kinase B in the reaction.
The compound of the present invention and the positive control AZD5363 were dissolved in dimethyl sulfoxide (DMSO) and diluted to a concentration of 50 μM. At room temperature, 0.25 μl of the compound sample and the positive control at a concentration of 50 μM were taken and added to the 384-well plate, and three parallel wells were set for each sample, and then 10 μl of STK Substrate 3, Working Solution, 5 μl AKT1/PKBα Working Solution, 10 μl ATP Working Solution were added to each sample well plate with vibrating gently and shaking for a few minutes. The reaction starts after 10 μl of ATP Working Solution was added to the well, and the reaction was timed at room temperature for 1 hour. After one hour, 5 μl of STK Stop Mix and 5 μl of STK Antibody Mix were added to each well respectively to stop the reaction. After the addition completes, it was allowed to stand at room temperature for four hours, and the polarization value of the sample was detected by the fluorescence polarization of the microplate reader (it was effective to detect its signal within 24 hours), and the inhibition rate of the compound was calculated by the polarization value, and then IC50 was calculated.
Four sets of controls were set in the experiment, namely Buffer Control Wells, Tracer Control Wells, No Enzyme Wells, and a blank dimethyl sulfoxide control. The resulting data was used to calculate the inhibition rate.
The activity of the compound was divided into three grades according to the size of the IC50 of the Akt inhibitory activity: “+++”, 1 nM<IC50<10 nM; “++”, 10 nM<IC50<50 nM; “+”, 50 nM<IC50.

T1 sequence (Q12809 whole entry): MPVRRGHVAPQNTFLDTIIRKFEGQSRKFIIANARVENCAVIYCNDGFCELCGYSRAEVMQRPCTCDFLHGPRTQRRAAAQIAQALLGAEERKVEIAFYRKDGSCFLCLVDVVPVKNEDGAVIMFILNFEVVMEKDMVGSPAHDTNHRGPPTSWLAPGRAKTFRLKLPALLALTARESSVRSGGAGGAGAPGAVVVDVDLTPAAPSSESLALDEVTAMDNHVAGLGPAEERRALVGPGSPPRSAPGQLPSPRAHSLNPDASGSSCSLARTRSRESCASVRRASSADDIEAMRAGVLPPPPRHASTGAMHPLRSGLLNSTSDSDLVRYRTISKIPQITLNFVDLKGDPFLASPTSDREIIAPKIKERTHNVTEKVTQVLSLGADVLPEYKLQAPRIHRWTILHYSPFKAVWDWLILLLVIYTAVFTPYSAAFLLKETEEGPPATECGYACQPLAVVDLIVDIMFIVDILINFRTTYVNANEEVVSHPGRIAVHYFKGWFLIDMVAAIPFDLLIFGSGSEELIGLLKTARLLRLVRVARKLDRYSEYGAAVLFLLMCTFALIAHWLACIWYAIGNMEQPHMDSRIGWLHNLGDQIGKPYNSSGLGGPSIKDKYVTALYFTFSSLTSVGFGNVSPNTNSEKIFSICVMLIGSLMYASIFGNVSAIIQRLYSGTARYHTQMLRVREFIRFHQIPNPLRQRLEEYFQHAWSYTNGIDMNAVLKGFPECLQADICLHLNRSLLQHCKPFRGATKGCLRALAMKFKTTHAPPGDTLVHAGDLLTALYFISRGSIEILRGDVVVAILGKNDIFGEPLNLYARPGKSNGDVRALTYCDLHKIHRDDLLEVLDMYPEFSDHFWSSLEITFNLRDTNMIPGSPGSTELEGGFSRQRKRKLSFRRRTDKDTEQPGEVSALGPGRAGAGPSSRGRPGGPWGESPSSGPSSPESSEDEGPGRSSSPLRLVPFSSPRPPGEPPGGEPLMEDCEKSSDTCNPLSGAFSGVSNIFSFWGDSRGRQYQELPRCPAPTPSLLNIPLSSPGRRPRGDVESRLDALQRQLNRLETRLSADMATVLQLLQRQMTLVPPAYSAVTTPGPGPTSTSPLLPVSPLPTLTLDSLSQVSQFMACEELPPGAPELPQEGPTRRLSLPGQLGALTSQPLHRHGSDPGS
T2 sequence (P31749 whole entry): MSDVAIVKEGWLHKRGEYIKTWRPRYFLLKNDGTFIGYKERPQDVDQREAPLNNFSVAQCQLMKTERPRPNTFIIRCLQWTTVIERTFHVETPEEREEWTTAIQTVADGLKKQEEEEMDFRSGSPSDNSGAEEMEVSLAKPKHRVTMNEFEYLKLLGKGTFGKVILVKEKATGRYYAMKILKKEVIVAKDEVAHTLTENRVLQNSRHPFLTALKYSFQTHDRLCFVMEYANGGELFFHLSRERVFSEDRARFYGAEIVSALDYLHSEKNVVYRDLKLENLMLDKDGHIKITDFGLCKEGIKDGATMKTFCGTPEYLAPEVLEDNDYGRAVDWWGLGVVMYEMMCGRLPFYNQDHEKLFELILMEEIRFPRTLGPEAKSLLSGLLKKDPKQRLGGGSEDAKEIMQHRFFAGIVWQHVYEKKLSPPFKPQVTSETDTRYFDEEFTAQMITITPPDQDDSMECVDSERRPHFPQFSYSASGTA

Turning to `Cn1ncc(Cl)c1-c1cc(C(=O)N[C@H]2CNCC[C@@H]2c2ccc(F)c(F)c2)oc1Cl` (racemic) [reference compound], at hERG potassium channel, the “hERG (Inhibition rate at 3 μM concentration)” value is 62%.

As to `Cn1nccc1-c1ccc(C(=O)N[C@@H]2CNCC[C@H]2c2ccc(F)c(F)c2)c(F)c1` [VII-1a], in data set [1], the “1/2” value is reported as 3.34 h. Also, the AUC0-inf in data set [1] was 1500 ng·h/mL. Also, the AUC0-t in data set [1] was determined as 1480 ng·h/mL. This molecule registered a Cmax in data set [1] (rat, plasma) of 132 ng/mL. The Tmax in [1] (rat, plasma) is 4.17 h. The pIC50 with HGC27 (72 hours) was 7.40; in the data set with CEM-C1 (72 hours), 7.00; with 786-O (72 hours), 6.25; with HCT-116 (72 hours), 5.87; in the data set with MCF-7 (72 hours), 5.65. In data set [2], this molecule returned an RTV of 11.37 ± 3.07. Besides, in data set [2], the “T/C(%)” value is 26.95%. Besides, the “Tumour volume D1” value in [2] (D1 (start)) is on record as 213 ± 102 mm^3. The “Tumour volume D22” value in [2] (D22) was 1498 ± 206* mm^3. For the same molecule, on hERG potassium channel, the “hERG (Inhibition rate at 3 μM concentration)” value worked out at 15.9%.

Consider `Cn1nccc1-c1ccc(C(=O)N[C@@H]2CNCC[C@H]2c2cc(F)c(F)c(F)c2)c(F)c1` [VII-8], for which the pIC50 was 7.70 with HGC27 (Homo sapiens, HGC-27, 72 h); 6.92 in the data set on CEM-C1 (Homo sapiens, CEM/C1, 72 h); 5.78 with 786-O (Homo sapiens, 786-0, 72 h); 5.82 with HCT-116 (Homo sapiens, HCT-116, 72 h); 5.73 with MCF-7 (Homo sapiens, MCF7, 72 h); 8.00 to 9.00 at AKT1/PKBα. For the same molecule, at hERG potassium channel, the “hERG (Inhibition rate at 3 μM concentration)” value turned out to be 11.8%.

Regarding `Cn1nccc1-c1cc(F)c(C(=O)N[C@@H]2CNCC[C@H]2c2ccc(F)c(F)c2)cc1F` [VII-18], the pIC50 with HGC27 (Homo sapiens, HGC-27, 72 h) was 7.52; with CEM-C1 (Homo sapiens, CEM/C1, 72 h), 7.70; in the data set with 786-O (Homo sapiens, 786-0, 72 h), 6.26; in the data set with HCT-116 (Homo sapiens, HCT-116, 72 h), 6.00; with MCF-7 (Homo sapiens, MCF7, 72 h), 5.93; on AKT1/PKBα, 8.00 to 9.00. In addition, the “hERG (Inhibition rate at 3 μM concentration)” value at hERG potassium channel worked out at 17.6%.

The Cmax is the highest concentration seen after dosing. One may read the Tmax as the time at which the peak concentration occurs. A word on the pIC50: it is −log10 of the IC50, conventionally taken in molar units.
